Our source for the EC50 and CC50 values is US20120295920A1, “5-AMINO-4-HYDROXYPENTOYL AMIDES” (priority 2009, published 2012).

Like-named read-outs stand apart in the source and are kept apart here.

Data set [1] deals with HIV-1 Strain A (M046I, I084V). The data set can be described thus: microbe, parasite or virus in culture. It counts as cell-based. To be noted: clinical isolate Strain A; read-out: A EC50. The essentials:
(§1)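 MT4 cells stably carrying an HIV LTR-driven EGFP reporter (150,000 cells/ml) were infected at MOI 0.0025 with or without inhibitor dilutions. Replication was read either as GFP fluorescence on day 3 post-infection or as cell viability by resazurin on day 4.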

Data set [2] concerns HIV-1 Strain B (M046I, I050V). Briefly: microbe, parasite or virus in culture. The class given is cell-based. Particulars: clinical isolate Strain B; read-out: B EC50. The essentials:
as §1

The test system of data set [3] is HIV-1 Strain C (G048G/V, V082A). Briefly: microbe, parasite or virus in culture. The class given is cell-based. To be noted: clinical isolate Strain C; read-out: C EC50. An outline of the steps:
as §1

The subject of data set [4] is mock-infected MT4 cells. The data set can be described thus: General toxicity assay on mock-infected MT4 cells with CMV-EGFP reporter (CC50). The class given is cell-based.
Data set [5] concerns HIV-1 IIIB. The data set can be described thus: 50% HS-Rezazurin: antiviral assay in the presence of 50% human serum, MT-4 cells, resazurin cell viability. It counts as cell-based. The essentials: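 MT-4 cells infected with HIV-1 IIIB (MOI 0.001 to 0.01 CCID50/cell) for 1 h, washed, then plated onto serial compound dilutions in 50% human serum (10% FCS alternative). After 4 days, EC50 derived from resazurin cell viability.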
On the technique in general: Resazurin is reduced to fluorescent resorufin, in cell work by metabolically active cells.

The test system of data set [6] is HIV-1 wild-type strain. The data set can be described thus: General antiviral assay, cell-based virus replication in MT4-LTR-EGFP cells, wild-type strain. To be noted: wild-type strain IIIB, MT4-LTR-EGFP cells. The essentials: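 HIV LTR-driven EGFP reporter MT4 cells (150,000 cells/ml) infected at MOI 0.0025 with or without inhibitor at various concentrations. Read-out either GFP fluorescence on day 3 post-infection or resazurin cell viability on day 4.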

Setting [7] is: MT4LTR cells, read-out: TOX-MT4LTR (CC50).
Setting [8] is: mock-infected MT4 cells with CMV-EGFP reporter, read-out: TOX-MT4CMV (CC50).

`COC(=O)N[C@H](C(=O)N[C@@H](Cc1ccc(-c2ccc(OC)nc2)cc1)[C@@H](O)C[C@@H](Cc1cccc(OC)c1)C(=O)N[C@H]1c2cc(Cl)ccc2OC[C@H]1O)C(C)(C)C` [Compound 27]: the EC50 in data set [1] came to 2.8 nM; in data set [2], 2.2 nM; in data set [3], 1.6 nM; in data set [5], 10.7 nM; in data set [6], 3.1 nM. The CC50 in data set [4] (setting [7]) and in data set [4] (setting [8]) was more than 32000 nM in each case.

Turning to `COC(=O)N[C@H](C(=O)N[C@@H](Cc1ccc(-c2ccc(OC)nc2)cc1)[C@@H](O)C[C@@H](Cc1cccc(F)c1)C(=O)N[C@H]1c2ccc(F)cc2OC[C@H]1O)C(C)(C)C` [Compound 85], the EC50 was 3 nM in data set [1]; 1.3 nM in data set [2]; 1.1 nM in data set [3]; 17.5 nM in data set [5]; 2.9 nM in data set [6]. Further, the CC50 in data set [4] (setting [7]) and in data set [4] (setting [8]) was more than 32000 nM each time.

For the compound `COC(=O)N[C@H](C(=O)N[C@@H](Cc1ccc(-c2ccc(OC)nc2)cc1)[C@@H](O)C[C@@H](Cc1cccc(OC(F)(F)F)c1)C(=O)N[C@H]1c2cc(Cl)ccc2OC[C@H]1O)C(C)(C)C` [Compound 42], the EC50 in data set [1] is 7.2 nM; in data set [2], 4.1 nM; in data set [3], 3.9 nM; in data set [5], 23.7 nM; in data set [6], 4.2 nM. The half-maximal cytotoxic concentration (CC50) in data set [4] (setting [7]) and in data set [4] (setting [8]) was more than 32000 nM throughout.

Turning to `COC(=O)N[C@H](C(=O)N[C@@H](Cc1ccc(-c2ccc(OC)nc2)cc1)[C@@H](O)C[C@@H](Cc1ccccc1F)C(=O)N[C@H]1c2cc(Cl)cc(F)c2OC[C@H]1O)C(C)(C)C` [Compound 61], the EC50 in data set [1] amounted to 3 nM; in data set [2] it was 2.1 nM; in data set [3] it was 1.6 nM; in data set [5], 16.1 nM; in data set [6], 4.1 nM. Moreover, the CC50 in data set [4] (setting [7]) is more than 32000 nM.

Take `COC(=O)NC(C(=O)NC(Cc1ccc(-c2cc(C)nc(C)c2)cc1)C(O)CC(Cc1ccccc1F)C(=O)NC1c2cc(Cl)ccc2OCC1O)C(C)(C)C` (stereo not drawn) [Compound 12]: the EC50 amounted to 3.7 nM in data set [1]; 3 nM in data set [2]; 2.2 nM in data set [3]; 35.7 nM in data set [5]; 4 nM in data set [6]. Further, the CC50 in data set [4] (setting [8]) was more than 32000 nM.

Consider `COC(=O)N[C@H](C(=O)N[C@@H](Cc1ccc(-c2ccc(OC)nc2)cc1)[C@@H](O)C[C@@H](Cc1ccccc1Cl)C(=O)N[C@H]1c2ccsc2CC[C@H]1O)C(C)(C)C` [Compound 95], for which the EC50 was found to be 2.2 nM in data set [1]; 1.3 nM in data set [2]; 1 nM in data set [3]; 5.9 nM in data set [5]; 1.5 nM in data set [6]. Besides, the 50% cytotoxic concentration (CC50) in data set [4] (setting [7]) stood at 23000 nM.

Take `COC(=O)N[C@H](C(=O)N[C@@H](Cc1ccc(-c2ccc(OC)nc2)cc1)[C@@H](O)C[C@@H](Cc1ccccc1Cl)C(=O)N[C@H]1c2ccccc2OC[C@H]1O)C(C)(C)C` [Compound 37]: the EC50 was found to be 2.5 nM in data set [1]; 0.9 nM in data set [2]; 0.8 nM in data set [3]; 4.6 nM in data set [5]; 1.7 nM in data set [6]. In addition, the CC50 in data set [4] (setting [7]) and in data set [4] (setting [8]) was more than 32000 nM throughout.

For `COC(=O)N[C@H](C(=O)N[C@@H](Cc1ccc(-c2ccc(OC)nc2)cc1)[C@@H](O)C[C@@H](Cc1cccc(F)c1)C(=O)N[C@H]1c2cc(Cl)ccc2OC[C@H]1O)C(C)(C)C` [Compound 39], the EC50 in data set [1] was determined as 3.9 nM; in data set [2] it was 2.1 nM; in data set [3], 1.3 nM; in data set [5], 16.4 nM; in data set [6], 3 nM. The CC50 in data set [4] (setting [7]) and in data set [4] (setting [8]) was more than 32000 nM in each case.

For `COC(=O)N[C@H](C(=O)N[C@@H](Cc1ccc(-c2ccc(N(C)C)nc2)cc1)[C@@H](O)C[C@@H](Cc1cccc(OC)c1)C(=O)N[C@H]1c2cc(F)ccc2OC[C@H]1O)C(C)(C)C` [Compound 26], the EC50 in data set [1] was 4.2 nM; in data set [2], 3.4 nM; in data set [3] it was 3.2 nM; in data set [5], 15.4 nM; in data set [6] it was 5 nM. For the same compound, the CC50 in data set [4] (setting [8]) was more than 32000 nM.

Regarding `COC(=O)NC(C(=O)NC(Cc1ccc(-c2ccc(N(C)C)nc2)cc1)C(O)CC(Cc1cccc(Cl)c1)C(=O)NC1c2cc(Cl)ccc2OCC1O)C(C)(C)C` (stereo not drawn) [Compound 5], the EC50 stood at 5.4 nM in data set [1]; 4.4 nM in data set [2]; 5.1 nM in data set [3]; 28.6 nM in data set [5]; 4.7 nM in data set [6]. The CC50 in data set [4] (setting [8]) is more than 32000 nM.

As to `COC(=O)NC(C(=O)NC(Cc1ccc(-c2ccc(OC)nc2)cc1)C(O)CC(Cc1ccccc1F)C(=O)NC1c2cc(C)cc(F)c2OCC1O)C(C)(C)C` (stereo not drawn) [Compound 101], the EC50 in data set [1] turned out to be 2.5 nM; in data set [2], 2.4 nM; in data set [3], 1.7 nM; in data set [5], 9.8 nM; in data set [6], 2.8 nM. In data set [4] (setting [7]), the CC50 is more than 32000 nM.

As for `CNC(=O)[C@@H](NC(=O)[C@H](Cc1ccccc1F)C[C@H](O)[C@H](Cc1ccc(-c2ccc(OC)nc2)cc1)NC(=O)[C@@H](NC(=O)OC)C(C)(C)C)C(C)(C)C` [Compound 88], the EC50 is 4.8 nM in data set [1]; 2.8 nM in data set [2]; 3 nM in data set [3]; 9.9 nM in data set [5]; 3.4 nM in data set [6]. For the same compound, the CC50 in data set [4] (setting [8]) was more than 32000 nM.

For the compound `COC(=O)NC(C(=O)NC(Cc1ccc(-c2ccc(OC)nc2)cc1)C(O)CC(Cc1cccc(Cl)c1)C(=O)NC1c2ccccc2OCC1O)C(C)(C)C` (stereo not drawn) [Compound 3], the EC50 in data set [1] is 2.3 nM; in data set [2], 3.5 nM; in data set [3], 2.4 nM; in data set [5], 13.6 nM; in data set [6], 2.6 nM. For the same compound, in data set [4] (setting [8]), the CC50 was more than 32000 nM.

Turning to `COC(=O)N[C@H](C(=O)N[C@@H](Cc1ccc(-c2ccc(N(C)C)nc2)cc1)[C@@H](O)C[C@@H](Cc1ccccc1F)C(=O)N[C@H]1[C@H](C)CC[C@H]1O)C(C)(C)C` [Compound 87], the EC50 was 8 nM in data set [1]; 1.9 nM in data set [2]; 5.4 nM in data set [3]; 14.4 nM in data set [5]; 4.7 nM in data set [6]. The CC50 in data set [4] (setting [8]) is more than 32000 nM.

With `COC(=O)N[C@H](C(=O)N[C@@H](Cc1ccc(-c2cnc(N(C)C)nc2)cc1)[C@@H](O)C[C@@H](Cc1cccc(OC(F)(F)F)c1)C(=O)N[C@H]1c2cc(Cl)ccc2OC[C@H]1O)C(C)(C)C` [Compound 49], the EC50 stood at 5.2 nM in data set [1]; 3.5 nM in data set [2]; 2.9 nM in data set [3]; 19 nM in data set [5]; 4.1 nM in data set [6]. Besides, in data set [4] (setting [7]), the CC50 was more than 32000 nM.

In the case of `COc1ccc(-c2ccc(C[C@H](NC(=O)O[C@H]3CO[C@H]4OCC[C@H]43)[C@@H](O)C[C@@H](Cc3ccccc3F)C(=O)N[C@H]3c4ccsc4CC[C@H]3O)cc2)cn1` [Compound 74], the EC50 stood at 0.8 nM in data set [1]; 0.6 nM in data set [2]; 0.4 nM in data set [3]; 3.5 nM in data set [5]; 0.9 nM in data set [6]. The CC50 in data set [4] (setting [7]) was more than 32000 nM.

For the compound `COC(=O)N[C@H](C(=O)N[C@@H](Cc1ccc(-c2cccc(OC)n2)cc1)[C@@H](O)C[C@@H](Cc1ccccc1F)C(=O)N[C@H]1c2cc(Cl)ccc2OC[C@H]1O)C(C)(C)C` [Compound 30], the EC50 in data set [1] was 5.9 nM; in data set [2], 2.8 nM; in data set [3], 2.5 nM; in data set [5], 17.4 nM; in data set [6], 4 nM. The CC50 in data set [4] (setting [8]) is more than 32000 nM.

As to `COC(=O)N[C@H](C(=O)N[C@@H](Cc1ccc(-c2cnc(OC(C)C)cn2)cc1)[C@@H](O)C[C@@H](Cc1cccc(F)c1)C(=O)N[C@H]1c2cc(Cl)ccc2OC[C@H]1O)C(C)(C)C` [Compound 46], the EC50 was 9.4 nM in data set [1]; 5.6 nM in data set [2]; 3.7 nM in data set [3]; 34.6 nM in data set [5]; 5.3 nM in data set [6]. The half-maximal cytotoxic concentration (CC50) in data set [4] (setting [7]) stood at 10000 nM.

With `COC(=O)NC(C(=O)NC(Cc1ccc(-c2cnc(C)s2)cc1)C(O)CC(Cc1cccc(Cl)c1)C(=O)NC1c2cc(Cl)ccc2OCC1O)C(C)(C)C` (stereo not drawn) [Compound 6], the EC50 in data set [1] was 3.9 nM; in data set [2], 2.7 nM; in data set [3], 1.5 nM; in data set [5] it was 15.2 nM; in data set [6], 3.2 nM. In data set [4] (setting [8]), the CC50 was more than 32000 nM.

As to `COc1cccc(C[C@H](C[C@H](O)[C@H](Cc2ccc(-c3csc(N(C)C)n3)cc2)NC(=O)O[C@H]2CO[C@H]3OCC[C@H]32)C(=O)N[C@H]2c3cc(Cl)ccc3OC[C@H]2O)c1` [Compound 71], the EC50 in data set [1] was 2.2 nM; in data set [2], 2.3 nM; in data set [3] it was 1 nM; in data set [5], 10.9 nM; in data set [6], 2.1 nM. In addition, the CC50 in data set [4] (setting [7]) and in data set [4] (setting [8]) was more than 32000 nM each time.

Usually EC50 stands for the concentration needed to bring the measured effect to its halfway point. For orientation: CC50 means the concentration giving 50% cytotoxicity.
